# Source: paper PMC5701137, “Discovery of novel choline acetyltransferase inhibitors using structure-based virtual screening” (Scientific Reports, 2017)
# pIC50, pKi: −log10 of the molar value. Where “and” joins values, the source holds several entries; their conditions need not be identical. Equal values may be shown once.
# What was measured:
# Assay type in all cases: biochemical
# [1] = target: T1, human rChAT (Homo sapiens, UniProt P28329); assay: In vitro ChAT activity inhibition fluorometric assay and kinetic studies; conditions: for mode of inhibition of human rChAT: Lineweaver-Burk plot and nonlinear regression fit; for Vmax of rChAT: inhibitor 0.4 µM, mean ± SEM of two experiments; for pKi / pIC50: mean of two experiments; for pIC50: substrate concentrations 20 to 80 µM
# T1 construct: made in house; host or cells: E. coli BL21 Rosetta2
# T1 sequence (P28329 1-630 isoform P28329-3): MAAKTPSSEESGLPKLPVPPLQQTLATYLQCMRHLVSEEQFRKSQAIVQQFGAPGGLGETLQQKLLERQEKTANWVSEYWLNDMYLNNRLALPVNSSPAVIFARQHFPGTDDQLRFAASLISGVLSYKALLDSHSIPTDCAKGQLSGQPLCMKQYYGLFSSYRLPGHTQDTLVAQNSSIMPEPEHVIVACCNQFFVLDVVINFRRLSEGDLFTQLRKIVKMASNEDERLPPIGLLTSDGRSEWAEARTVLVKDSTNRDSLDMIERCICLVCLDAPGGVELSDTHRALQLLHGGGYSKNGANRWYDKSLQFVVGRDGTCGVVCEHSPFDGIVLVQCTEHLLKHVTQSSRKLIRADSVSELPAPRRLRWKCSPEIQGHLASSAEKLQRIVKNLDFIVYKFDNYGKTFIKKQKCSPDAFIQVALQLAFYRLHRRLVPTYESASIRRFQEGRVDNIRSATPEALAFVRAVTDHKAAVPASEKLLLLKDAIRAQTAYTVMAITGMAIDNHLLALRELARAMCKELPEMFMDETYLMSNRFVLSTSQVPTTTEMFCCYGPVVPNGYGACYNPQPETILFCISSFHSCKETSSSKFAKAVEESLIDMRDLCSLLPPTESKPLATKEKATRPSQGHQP
# Protocol: ChAT activity was measured using our newly developed fluorometric assay, using human recombinant ChAT (rChAT) protein. The reagents, choline chloride, acetyl coenzyme-A (ACoA, A2181) and 7-Diethylamino-3-(4-maleimidophenyl)-4-methylcoumarin (CPM) were purchased from Sigma-Aldrich (St. Louis, MO, USA).
# The ChAT assay could be run in either 96-well or 384-well plates. For 96-well plates, 50 μL/well of 0.212 µg/ml (final concentration) of the recombinant ChAT was incubated with 100 μM different Asinex compounds (50 μL/well) for 10–30 minutes at room temperature in dilution buffer (10 mM Tris-HCl, pH 7.4, 150 mM NaCl, 1.0 mM EDTA, 0.05% (v/v) Triton X-100). Then, 50 µL of a cocktail-A [dilution buffer containing choline chloride (final concentration 150 µM), ACoA (final concentration 13.3 µM) and CPM (final concentration 15 µM)] was added to each well. Immediately after adding the cocktail-A, the changes in fluorescence was monitored kinetically at 479 nm after exciting at 390 nm at 1–2 minute intervals for 15–20 minutes using a microplate spectrophotometer reader (Infinite M1000, Tecan).
# Each Asinex compounds were run in triplicates. On each 96-wells plate, several enzyme wells without inhibitor were also included during measurements as control and for estimating the inhibition level. Negative controls were wells without enzyme. The percentage inhibition for each Asinex compound was calculated based on the enzyme control value as a reference (100% activity). The compounds showing over 50% inhibition of enzyme activity were selected for further kinetic studies.
# (§1) For kinetic studies, a similar protocol as inhibition assay was followed; a dilution series of five different concentrations ranging from 10^−6 to 10^−9 M were prepared for each selected Asinex compounds. For ChAT, the A-CoA was kept constant at 10 μM (final) but the concentration of choline chloride varied between 320–10 μM. For BuChE, BTC was used as the substrate in the concentrations ranging from 0.0625 to 2 mM. For AChE, ATC was used as the substrate in the concentrations ranging from 0.0312 to 1 mM. Each compound concentration was measured in duplicates. The rate of enzyme activity (as ∆OD/hr kinetic data) was calculated and processed using the GraphPad Prism 7 analysis software. The inhibitory constant (Ki) values were determined from the dose-response curve and the half-maximal inhibitory concentration (IC50) values were calculated by plotting the percentage enzyme activity vs. the log of the Asinex compound concentrations and fitting the data using the nonlinear regression Enzyme Kinetics-Inhibition function.
# The Michaelis-Menten constant (Km) and maximal velocity (Vmax) values were calculated from substrate-velocity curve after fitting the data with non-linear regression Michaelis-Menten kinetic function. The Km and Vmax values were further used to plot the Lineweaver-Burk plots; the plots were fitted using linear regression function.
# [2] = target: T1, human rChAT; assay: as above; conditions: mean ± SEM of two experiments
# [3] = target: T2, recombinant human AChE (Homo sapiens, UniProt P22303); assay: Modified Ellman's colorimetric assay for AChE and kinetic studies; conditions: 200 µM compound, compared to control, mean of three experiments in triplicate; for inhibition at 200 µM: read-out: AChE % IR (inhibition rate)
# T2 construct: purchased Sigma C1682
# T2 sequence (P22303 32-614): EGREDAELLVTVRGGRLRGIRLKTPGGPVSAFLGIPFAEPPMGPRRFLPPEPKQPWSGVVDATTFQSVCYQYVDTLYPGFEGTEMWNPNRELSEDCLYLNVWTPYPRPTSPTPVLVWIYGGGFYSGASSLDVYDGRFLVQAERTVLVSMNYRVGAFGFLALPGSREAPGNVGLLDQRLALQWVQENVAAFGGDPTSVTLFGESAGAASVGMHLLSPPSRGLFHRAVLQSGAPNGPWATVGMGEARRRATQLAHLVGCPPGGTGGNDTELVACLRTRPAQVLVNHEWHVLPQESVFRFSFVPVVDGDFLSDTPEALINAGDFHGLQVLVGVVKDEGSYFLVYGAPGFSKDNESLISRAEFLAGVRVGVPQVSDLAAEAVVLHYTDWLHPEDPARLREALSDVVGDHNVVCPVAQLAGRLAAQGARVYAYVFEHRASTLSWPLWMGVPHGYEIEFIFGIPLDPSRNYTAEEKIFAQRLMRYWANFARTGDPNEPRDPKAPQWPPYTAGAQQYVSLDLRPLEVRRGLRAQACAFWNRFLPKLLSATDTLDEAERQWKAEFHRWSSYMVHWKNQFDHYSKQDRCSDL
# From the text: (§2) A modified version of Ellman’s colorimetric assay[16],[17] was adapted to a high throughput assay for the enzymatic activity of BuChE and AChE. The reagent, butyrylthiocholine iodide (BTC), acetylthiocholine iodide (ATC), 5,5′-dithiobis (2-nitrobenzoic acid) (DTNB) were purchased from Sigma-Aldrich (St. Louis, MO, USA). The modified assay details are as previously described[34],[35]. The main modification concerned with the high throughput adaptation of the assay for use in 384-well plates. Briefly, 25 μL/well of a 1:450 diluted solution of a pooled human plasma and 1:768 diluted (3.5 ng/ml final concentration) purified recombinant human AChE protein (Sigma, Cat no. C1682) was used for measurement of BuChE and AChE activity, respectively. In the initial in vitro screening step, the wells were pre-incubated with 25 μL/wells of different Asinex compounds for 10–30 minutes at room temperature. The concentration of the compounds working solution was 3X to give a final concentration of 200 μM in a final volume of 75 μL in each well. The stock concentration of the compounds were prepared in 100% DMSO. The stock concentration was chosen usually at 10 mM, allowing the final DMSO concentration in the wells to be less than 4%. Finally, 25 μL of a cocktail mix prepared in Na/K phosphate buffer, containing DTNB (final concentration 0.4 mM) and BTC, (final concentration 1 mM) or ATC (final concentration 0.5 mM) was added to each well and the changes in absorbance was monitored at 412 nm wavelength for 15–20 minutes with one-minute interval, using a microplate spectrophotometer reader (Infinite M1000, Tecan). The rate of the enzyme activity was determined from the linear part of the kinetic reaction curves as ∆OD/time.
# as §1
# [4] = target: T3, plasma BuChE (Homo sapiens, UniProt P06276); assay: Modified Ellman's colorimetric assay for BuChE (pooled human plasma) and kinetic studies; conditions: 200 µM compound, compared to control, mean of three experiments in triplicate; for BuChE % IR (inhibition rate): 200 µM; for inhibition at 200 µM: read-out: BuChE % IR (inhibition rate)
# T3 construct: 1:450 diluted solution of a pooled human plasma; from tissue; host or cells: pooled human plasma
# T3 sequence (P06276 29-602): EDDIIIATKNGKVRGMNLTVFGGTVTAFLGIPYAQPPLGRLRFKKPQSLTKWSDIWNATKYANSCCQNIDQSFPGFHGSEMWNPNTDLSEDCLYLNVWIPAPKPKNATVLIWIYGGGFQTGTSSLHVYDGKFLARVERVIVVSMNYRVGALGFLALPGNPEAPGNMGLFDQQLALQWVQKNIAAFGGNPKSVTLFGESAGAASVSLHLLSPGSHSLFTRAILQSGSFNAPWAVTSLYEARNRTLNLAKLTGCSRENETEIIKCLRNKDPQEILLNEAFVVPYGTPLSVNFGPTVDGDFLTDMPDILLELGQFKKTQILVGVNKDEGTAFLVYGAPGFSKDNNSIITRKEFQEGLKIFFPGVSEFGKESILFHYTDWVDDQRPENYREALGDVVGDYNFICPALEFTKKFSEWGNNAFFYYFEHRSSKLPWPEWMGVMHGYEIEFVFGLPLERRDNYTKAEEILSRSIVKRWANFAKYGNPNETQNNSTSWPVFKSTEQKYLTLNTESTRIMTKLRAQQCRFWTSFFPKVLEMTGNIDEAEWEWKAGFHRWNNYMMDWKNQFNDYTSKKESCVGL
# From the text: as §2, §1
Compound,mode of inhibition of human rChAT [1],Vmax of rChAT [1] [µM/min],pKi [1],pIC50 [1],Vmax of rChAT ([2]; inhibitor 2.0 µM) [µM/min],Vmax of rChAT ([2]; inhibitor 10.0 µM) [µM/min],Vmax of rChAT ([2]; inhibitor 50.0 µM) [µM/min],Vmax of rChAT ([2]; inhibitor 250.0 µM) [µM/min],inhibition at 200 µM [3] [%],BuChE % IR (inhibition rate) [4] [%],inhibition at 200 µM [4] [%],"inhibition at 100 µM ([1]; 100 µM compound, compared to control, mean of three experiments in triplicate, read-out: ChAT % IR (inhibition rate)) [%]",AChE % IR (inhibition rate) ([3]; 200 µM) [%]
CC(C)NC(=O)C1CCN(C(=O)c2csc(Nc3cccc4ccccc34)n2)CC1 [Compound B4],mixed-model type inhibition,239.0 ± 21.4,4.92,~4.78 and 4.78,226 ± 20.9,150.9 ± 13.5,92.1 ± 19.4,45.5 ± 8.5,0,22.1,22,,
CC(C)c1ccc(C(=O)CSc2n[nH]c(-c3ccco3)n2)cc1 [Compound E1],mixed-model inhibition,276.1 ± 12.1,~4.82 and 4.82,~4.60 and 4.60,265.1 ± 11.7,243.8 ± 22.0,167.8 ± 10.4,160.3 ± 16.8,12,17.2,17,> 50,12.4
